Assay results published in article PMC8795539 (Proceedings of the National Academy of Sciences of the …, 2022).

How the values were obtained:
[1] = biological target: T1, SmoA (Atu3277), flavin mononucleotide reductase (Agrobacterium fabrum, UniProt Q7CS24); assay: copurification, LC-MS of heat-released flavin; assay type: binding
T1 sequence (Q7CS24 1-174): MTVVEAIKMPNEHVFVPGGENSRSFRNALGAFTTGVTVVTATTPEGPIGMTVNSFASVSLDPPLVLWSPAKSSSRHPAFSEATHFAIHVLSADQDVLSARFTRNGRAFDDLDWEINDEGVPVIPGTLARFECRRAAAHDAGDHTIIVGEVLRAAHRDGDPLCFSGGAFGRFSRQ

[2] = biological target: T2, SmoB (Atu3278), 6-OG reductase (Agrobacterium fabrum, UniProt A9CEY6); assay: ITC; assay type: binding
T2 sequence (A9CEY6 1-297): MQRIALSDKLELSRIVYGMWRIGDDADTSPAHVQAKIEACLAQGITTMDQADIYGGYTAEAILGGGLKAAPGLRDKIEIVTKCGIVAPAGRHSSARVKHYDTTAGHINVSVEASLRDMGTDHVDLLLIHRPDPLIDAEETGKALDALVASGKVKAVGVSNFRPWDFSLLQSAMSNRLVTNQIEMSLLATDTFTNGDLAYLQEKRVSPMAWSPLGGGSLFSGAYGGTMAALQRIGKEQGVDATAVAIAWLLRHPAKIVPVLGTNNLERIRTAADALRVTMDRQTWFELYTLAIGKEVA

SEC-MALS = biological target: the molecule itself; assay: SEC-MALS
purified protein = substrate: NC(=O)C1=CN([C@@H]2O[C@H](COP(=O)(O)OP(=O)(O)OC[C@H]3O[C@@H](n4cnc5c(N)ncnc54)[C@H](O)[C@@H]3O)[C@@H](O)[C@H]2O)C=CC1; assay: purified protein; conditions: FMN

Cc1cc2nc3c(=O)[nH]c(=O)nc-3n(C[C@H](O)[C@H](O)[C@H](O)COP(=O)(O)O)c2cc1C [FMN]
copurification, LC-MS of heat-released flavin [1]: to reveal that flavin mononucleotide (FMN) was the sole detectable flavin

NC(=O)C1=CN([C@@H]2O[C@H](COP(=O)(O)OP(=O)(O)OC[C@H]3O[C@@H](n4cnc5c(N)ncnc54)[C@H](OP(=O)(O)O)[C@@H]3O)[C@@H](O)[C@H]2O)C=CC1 [NADPH]
Kd [2]: ~2000 nM

B1: SmoC (Atu3279), SQ monooxygenase from Agrobacterium tumefaciens C58 (enzyme)
chain: MTVVPVTSADLDAAEVSWFSALCSDDYAYLGVPDGSLRSSFEHCSDIVKKAEELGFRNILCPSSYQVGQDTLSFVAGCAPISDRINFLAAIRCGEMQPIMLARTVATLDHMLKGRLTLNVISSDFPGEVADSAFRYKRSHEVVEILRQAWTRDTIDHDGEIYQFKGVSTEPARPYQLNGGPLLYFGGYSPDALELCGAQCDVYLMWPETKDQLADRMRAAHERAAAHGRTLDYGLRVHMVVRDTEQEAREYADHLVSKLDDEYGQLIRNRAHDSGSLGVSHQARARELADKFGYVEPNLWTGIGRARSGCGAALVGSTDQVLSALEEYQKMGIRAFILSGYPHLDEAEHFGTKVLPQMKTCSLPHAYGRVPSETPATPLGNGERH
stoichiometry N (SEC-MALS): 2

B2: SmoA (Atu3277), flavin mononucleotide reductase (Agrobacterium fabrum str. C58) (protein)
chain: T1 sequence (Q7CS24 1-174)
Km (purified protein): 35 ± 5 µM
